In patent US20230085307A1, “PYRIDAZINONE COMPOUND AND HERBICIDE” (NISSAN CHEMICAL CORPORATION, priority 2019, published 2023):

How the values were obtained:
late watergrass [1] = test: Test Example 1: herbicidal activity, application before weed generation under submerged conditions (Table 16, symbol A); type: in vivo, late watergrass (Echinochloa oryzicola); conditions: amount of applied herbicide 320 g/ha
Outline: (§1)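 Submerged Wagner pots (alluvial soil, 4 cm water) sown with weed seeds and planted with 2.5-leaf rice seedlings; emulsifiable concentrate diluted in water applied to water surface on sowing day. Held in greenhouse at 25-30 °C; injury scored 0-5 by herbicidal rate after three weeks.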

Japanese bulrush = test: Test Example 1: herbicidal activity, application before weed generation under submerged conditions (Table 16, symbol B); type: in vivo, Japanese bulrush (Schoenoplectus juncoides); conditions: amount of applied herbicide 320 g/ha
Outline: as §1

late watergrass [2] = test: Test Example 2: herbicidal activity, application during weed generation under submerged conditions (Table 17, symbol A); type: in vivo, late watergrass (Echinochloa oryzicola); conditions: for herbicidal effect rating, A: late watergrass: AAH 320 g/ha, application during weed generation, submerged conditions; for herbicidal effect grade, A: late watergrass: application during weed generation under submerged conditions, amount of applied herbicide 320 g/ha
Outline: (§2)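 Alluvial soil in Wagner pots was flooded to 4 cm depth and sown with the three weeds together; pots were kept in a greenhouse at 25° C. to 30° C. At the one to two leaf stage, an emulsion formulation diluted in water to a set rate went onto the water surface; scored three weeks later.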

oval-leafed pondweed = test: Test Example 2: herbicidal activity, application during weed generation under submerged conditions (Table 17, symbol C); type: in vivo, oval-leafed pondweed (Monochoria vaginalis); conditions: for herbicidal effect rating, C: oval-leafed pondweed: AAH 320 g/ha, application during weed generation, submerged conditions; for herbicidal effect grade, C: oval-leafed pondweed: application during weed generation under submerged conditions, amount of applied herbicide 320 g/ha
Outline: as §2

barnyard grass [3] = test: Test Example 3: herbicidal effect by foliage application, Wagner pot (Table 18, symbol H); type: in vivo, barnyard grass (Echinochloa crus-galli)
Outline: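 Plants were sown in alluvial soil held under 0.1–0.5 cm standing water and grown 14 days in a greenhouse at 25–30 °C. An emulsifiable formulation, water-diluted to the set dose, was then sprayed onto the foliage, and effects were scored three weeks later using previously defined criteria.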

barnyard grass [4] = test: Test Example 4: herbicidal effect by soil treatment (Table 19, symbol H); type: in vivo, barnyard grass (Echinochloa crus-galli); conditions: amount of applied herbicide 320 g/ha
Outline: (§3)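 Step 1: sow seeds in sterilized diluvial soil, cover ~1.5 cm. Step 2: spray diluted emulsion onto soil surface at predetermined rate. Step 3: greenhouse, 25–30° C, three weeks. Step 4: grade effect on each plant by earlier criteria.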

Italian ryegrass = test: Test Example 4: herbicidal effect by soil treatment (Table 19, symbol K); type: in vivo, Italian ryegrass (Lolium multiflorum); conditions: amount of applied herbicide 320 g/ha
Outline: as §3

windgrass [5] = test: Test Example 4: herbicidal effect by soil treatment (Table 19, symbol L); type: in vivo, windgrass (Apera spica-venti); conditions: amount of applied herbicide 320 g/ha
Outline: as §3

velvetleaf = test: Test Example 4: herbicidal effect by soil treatment (Table 19, symbol M); type: in vivo, velvetleaf (Abutilon theophrasti); conditions: amount of applied herbicide 320 g/ha
Outline: as §3

lambsquarters = test: Test Example 4: herbicidal effect by soil treatment (Table 19, symbol O); type: in vivo, lambsquarters (Chenopodium album); conditions: amount of applied herbicide 320 g/ha
Outline: as §3

chickweed [6] = test: Test Example 4: herbicidal effect by soil treatment (Table 19, symbol P); type: in vivo, common chickweed (Stellaria media); conditions: amount of applied herbicide 320 g/ha
Outline: as §3

persian speedwell [7] = test: Test Example 4: herbicidal effect by soil treatment (Table 19, symbol R); type: in vivo, Persian speedwell (Veronica persica); conditions: amount of applied herbicide 320 g/ha
Outline: as §3

green foxtail = test: Test Example 5: herbicidal effect by foliage application, plastic box (Table 20, symbol G); type: in vivo, green foxtail (Setaria viridis); conditions: 320 g/ha; for G (green foxtail) herbicidal effect grade: evaluated 3 weeks after application
Outline: (§4)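 Foliar spray test: emulsion formulation diluted in water to a set application rate, sprayed onto 14-day-old plants raised in diluvial soil at 25° C to 30° C under glass. Both herbicidal effect and crop effect rated visually three weeks later.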

windgrass [8] = test: Test Example 5: herbicidal effect by foliage application, plastic box (Table 20, symbol L); type: in vivo, windgrass (Apera spica-venti); conditions: 320 g/ha; for L (windgrass) herbicidal effect grade: evaluated 3 weeks after application
Outline: as §4

redroot pigweed = test: Test Example 5: herbicidal effect by foliage application, plastic box (Table 20, symbol N); type: in vivo, redroot pigweed (Amaranthus retroflexus); conditions: 320 g/ha; for N (redroot pigweed) herbicidal effect grade: evaluated 3 weeks after application
Outline: as §4

chickweed [9] = test: Test Example 5: herbicidal effect by foliage application, plastic box (Table 20, symbol P); type: in vivo, common chickweed (Stellaria media); conditions: 320 g/ha; for P (chickweed) herbicidal effect grade: evaluated 3 weeks after application
Outline: as §4

persian speedwell [10] = test: Test Example 5: herbicidal effect by foliage application, plastic box (Table 20, symbol R); type: in vivo, Persian speedwell (Veronica persica); conditions: 320 g/ha; for R (persian speedwell) herbicidal effect grade: evaluated 3 weeks after application
Outline: as §4

[11] = foliage application after 14-day growth, evaluated three weeks after application
[12] = amount of applied herbicide 320 g/ha
[13] = foliage application, three weeks after application

Structure (SMILES) | Herbicidal effect, A: late watergrass (late watergrass [1]) | Herbicidal effect, B: Japanese bulrush (Japanese bulrush) | herbicidal effect rating, A: late watergrass (late watergrass [2]) | herbicidal effect rating, C: oval-leafed pondweed (oval-leafed pondweed) | herbicidal effect grade, A: late watergrass (late watergrass [2]) | herbicidal effect grade, C: oval-leafed pondweed (oval-leafed pondweed) | Herbicidal effect on H (barnyard grass), foliage application (barnyard grass [3]; [12]) | H: barnyard grass, herbicidal effect grade (barnyard grass [4]) | K: Italian ryegrass, herbicidal effect grade (Italian ryegrass) | L: windgrass, herbicidal effect grade (windgrass [5]) | M: velvetleaf, herbicidal effect grade (velvetleaf) | O: lambsquarters, herbicidal effect grade (lambsquarters) | P: chickweed, herbicidal effect grade (chickweed [6]) | R: persian speedwell, herbicidal effect grade (persian speedwell [7]) | G (green foxtail) herbicidal effect grade (green foxtail; foliage application) | L (windgrass) herbicidal effect grade (windgrass [8]; foliage application) | N (redroot pigweed) herbicidal effect grade (redroot pigweed; foliage application) | P (chickweed) herbicidal effect grade (chickweed [9]; foliage application) | R (persian speedwell) herbicidal effect grade (persian speedwell [10]; foliage application) | further results
CCCC(=O)Oc1c(C)nn(C)c(=O)c1-c1c(-c2ccc(OC)cc2)sc2c(Cl)cccc12 [4-024] | 3 (Herbicidal rate of 40% or more and less than 70%) | 2 (Herbicidal rate of 20% or more and less than 40%) | 3 (Herbicidal rate of 40% or more and less than 70%) | 0 (Herbicidal rate of 5% or less (almost no effect)) | – | – | – | – | – | – | – | – | – | – | – | – | – | – | – | herbicidal effect on barnyard grass (H) (barnyard grass [3]; 320 g/ha): 4 (Herbicidal rate of 70% or more and less than 90%); Herbicidal effect by soil treatment, H: barnyard grass (barnyard grass [4]): 0 (Herbicidal rate of 5% or less (almost no effect)); Herbicidal effect by soil treatment, K: Italian ryegrass (Italian ryegrass): 0 (Herbicidal rate of 5% or less (almost no effect)); Herbicidal effect by soil treatment, L: windgrass (windgrass [5]): 0 (Herbicidal rate of 5% or less (almost no effect)); Herbicidal effect by soil treatment, M: velvetleaf (velvetleaf): 0 (Herbicidal rate of 5% or less (almost no effect)); Herbicidal effect by soil treatment, O: lambsquarters (lambsquarters): 0 (Herbicidal rate of 5% or less (almost no effect)); Herbicidal effect by soil treatment, P: chickweed (chickweed [6]): 0 (Herbicidal rate of 5% or less (almost no effect)); Herbicidal effect by soil treatment, R: persian speedwell (persian speedwell [7]): 0 (Herbicidal rate of 5% or less (almost no effect)); herbicidal effect on G: green foxtail (evaluation grade 0-5) (green foxtail; [11]): 4 (Herbicidal rate of 70% or more and less than 90%); herbicidal effect on L: windgrass (evaluation grade 0-5) (windgrass [8]; [11]): 4 (Herbicidal rate of 70% or more and less than 90%); herbicidal effect on N: redroot pigweed (evaluation grade 0-5) (redroot pigweed; [11]): 5 (Herbicidal rate of 90% or more (almost completely withered)); herbicidal effect on P: chickweed (evaluation grade 0-5) (chickweed [9]; [11]): 5 (Herbicidal rate of 90% or more (almost completely withered)); herbicidal effect on R: persian speedwell (evaluation grade 0-5) (persian speedwell [10]; [11]): 4 (Herbicidal rate of 70% or more and less than 90%)
Cc1nn(C)c(=O)c(-c2c(-c3ccc(Cl)cc3)sc3cccc(F)c23)c1O [11-001] | 3 (Herbicidal rate of 40% or more and less than 70%) | 5 (Herbicidal rate of 90% or more (almost completely withered)) | – | – | 2 (Herbicidal rate of 20% or more and less than 40%) | 3 (Herbicidal rate of 40% or more and less than 70%) | 3 (Herbicidal rate of 40% or more and less than 70%) | 0 (Herbicidal rate of 5% or less (almost no effect)) | 0 (Herbicidal rate of 5% or less (almost no effect)) | 0 (Herbicidal rate of 5% or less (almost no effect)) | 2 (Herbicidal rate of 20% or more and less than 40%) | 4 (Herbicidal rate of 70% or more and less than 90%) | 4 (Herbicidal rate of 70% or more and less than 90%) | 5 (Herbicidal rate of 90% or more (almost completely withered)) | 0 (Herbicidal rate of 5% or less (almost no effect)) | 0 (Herbicidal rate of 5% or less (almost no effect)) | 5 (Herbicidal rate of 90% or more (almost completely withered)) | 5 (Herbicidal rate of 90% or more (almost completely withered)) | 5 (Herbicidal rate of 90% or more (almost completely withered)) | –
CCCC(=O)Oc1c(C)nn(C)c(=O)c1-c1c(-c2ccc(OC)cc2)sc2cc(F)ccc12 [3-008] | 5 (Herbicidal rate of 90% or more (almost completely withered)) | 5 (Herbicidal rate of 90% or more (almost completely withered)) | 0 (Herbicidal rate of 5% or less (almost no effect)) | 4 (Herbicidal rate of 70% or more and less than 90%) | – | – | – | – | – | – | – | – | – | – | – | – | – | – | – | herbicidal effect on H: barnyard grass (barnyard grass [3]; [12]): 4 (Herbicidal rate of 70% or more and less than 90%); herbicidal effect, H: barnyard grass (barnyard grass [4]): 0 (Herbicidal rate of 5% or less (almost no effect)); herbicidal effect, K: Italian ryegrass (Italian ryegrass): 0 (Herbicidal rate of 5% or less (almost no effect)); herbicidal effect, L: windgrass (windgrass [5]): 0 (Herbicidal rate of 5% or less (almost no effect)); herbicidal effect, M: velvetleaf (velvetleaf): 0 (Herbicidal rate of 5% or less (almost no effect)); herbicidal effect, O: lambsquarters (lambsquarters): 5 (Herbicidal rate of 90% or more (almost completely withered)); herbicidal effect, P: chickweed (chickweed [6]): 5 (Herbicidal rate of 90% or more (almost completely withered)); herbicidal effect, R: persian speedwell (persian speedwell [7]): 5 (Herbicidal rate of 90% or more (almost completely withered)); G: green foxtail, herbicidal effect grade (green foxtail; [13]): 3 (Herbicidal rate of 40% or more and less than 70%); L: windgrass, herbicidal effect grade (windgrass [8]; [13]): 3 (Herbicidal rate of 40% or more and less than 70%); N: redroot pigweed, herbicidal effect grade (redroot pigweed; [13]): 5 (Herbicidal rate of 90% or more (almost completely withered)); P: chickweed, herbicidal effect grade (chickweed [9]; [13]): 5 (Herbicidal rate of 90% or more (almost completely withered)); R: persian speedwell, herbicidal effect grade (persian speedwell [10]; [13]): 5 (Herbicidal rate of 90% or more (almost completely withered))
CCSc1ccc(-c2oc3ccc(C)cc3c2-c2c(O)c(C)nn(C)c2=O)cc1 [9-057] | 5 (Herbicidal rate of 90% or more (almost completely withered)) | 4 (Herbicidal rate of 70% or more and less than 90%) | – | – | 5 (Herbicidal rate of 90% or more (almost completely withered)) | 4 (Herbicidal rate of 70% or more and less than 90%) | 5 (Herbicidal rate of 90% or more (almost completely withered)) | 3 (Herbicidal rate of 40% or more and less than 70%) | 5 (Herbicidal rate of 90% or more (almost completely withered)) | 0 (Herbicidal rate of 5% or less (almost no effect)) | 4 (Herbicidal rate of 70% or more and less than 90%) | 5 (Herbicidal rate of 90% or more (almost completely withered)) | 5 (Herbicidal rate of 90% or more (almost completely withered)) | 5 (Herbicidal rate of 90% or more (almost completely withered)) | 5 (Herbicidal rate of 90% or more (almost completely withered)) | 3 (Herbicidal rate of 40% or more and less than 70%) | 5 (Herbicidal rate of 90% or more (almost completely withered)) | 5 (Herbicidal rate of 90% or more (almost completely withered)) | 5 (Herbicidal rate of 90% or more (almost completely withered)) | –
